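Grown in 96-well plates, cells were treated for 48 hours with each compound at five concentrations. Insufficient inhibition: endpoint recorded as highest concentration tested. The concentration for 50% growth inhibition is given as GI50.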 Activity calls are given as the source filed them. No stated cut-off is given here; in the data, active = GI50 up to about 1.1 µM and inactive = higher.
Experiments:
Assay in all cases: NCI tumour cell line growth inhibition, 48 h
786-0 = test system: 786-0
SF-268 = test system: SF-268
HCT-116 = test system: HCT-116
MDA-MB-231 = test system: MDA-MB-231
UO-31 = test system: UO-31
NCI-H460 = test system: NCI-H460
MOLT-4 = test system: MOLT-4
A549 = test system: A549
M14 = test system: M14
Hs-578T = test system: Hs-578T
U-251 = test system: U-251
KM12 = test system: KM12
TK-10 = test system: TK-10
LOX IMVI = test system: LOX IMVI
MCF7 = test system: MCF7
HCC 2998 = test system: HCC 2998
HCT-15 = test system: HCT-15
EKVX = test system: EKVX
DU-145 = test system: DU-145
SF-295 = test system: SF-295
A498 = test system: A498
COLO 205 = test system: COLO 205
MDA-MB-435 = test system: MDA-MB-435
PC-3 = test system: PC-3
Malme-3M = test system: Malme-3M
SNB-19 = test system: SNB-19
K562 = test system: K562
SNB-75 = test system: SNB-75
CAKI-1 = test system: CAKI-1
SW-620 = test system: SW-620
T47D = test system: T47D
HL-60 = test system: HL-60
NCI-H226 = test system: NCI-H226
MDA-N = test system: MDA-N
SK-OV-3 = test system: SK-OV-3
ACHN = test system: ACHN
OVCAR-8 = test system: OVCAR-8
HOP-92 = test system: HOP-92
HT-29 = test system: HT-29
NCI-H522 = test system: NCI-H522
SK-MEL-5 = test system: SK-MEL-5
CCRF-CEM = test system: CCRF-CEM
OVCAR-4 = test system: OVCAR-4
UACC-62 = test system: UACC-62
IGROV-1 = test system: IGROV-1
BT-549 = test system: BT-549
SK-MEL-2 = test system: SK-MEL-2
NCI-H23 = test system: NCI-H23
NCI/ADR-RES = test system: NCI/ADR-RES
SN12C = test system: SN12C
HOP-62 = test system: HOP-62
OVCAR-3 = test system: OVCAR-3
UACC-257 = test system: UACC-257
OVCAR-5 = test system: OVCAR-5
SK-MEL-28 = test system: SK-MEL-28
SF-539 = test system: SF-539
RXF 393 = test system: RXF 393

How did the GI50 (786-0) turn out when `COc1c(OC)c(OC)c2c(=O)c(OC)c(-c3ccc4c(c3)OCO4)oc2c1OC` was run?
Its GI50 is > 100 µM (inactive).

And the GI50 (SF-268)?
The GI50 was > 100 µM (inactive).

What about the GI50 (HCT-116) of the same compound?
Its GI50 is 86.7 µM (inactive).

And the GI50 (MDA-MB-231)?
Its GI50 is > 100 µM (inactive).

What about the GI50 (UO-31) of the same compound?
The GI50 was 57.8 µM (inactive).

What about the GI50 (NCI-H460) of the same compound?
The GI50 was > 100 µM (inactive).

And the GI50 (MOLT-4)?
The GI50 was 39.7 µM (inactive).

And the GI50 (A549)?
The GI50 was 53.2 µM (inactive).

What about the GI50 (M14) of the same compound?
Its GI50 is > 100 µM (inactive).

What about the GI50 (Hs-578T) of the same compound?
The GI50 was > 100 µM (inactive).

What about the GI50 (U-251) of the same compound?
The GI50 was > 100 µM (inactive).

And the GI50 (KM12)?
The GI50 was > 100 µM (inactive).

What about the GI50 (TK-10) of the same compound?
Its GI50 is > 100 µM (inactive).

What about the GI50 (LOX IMVI) of the same compound?
The GI50 was > 100 µM (inactive).

What about the GI50 (MCF7) of the same compound?
The GI50 was > 100 µM (inactive).

What about the GI50 (HCC 2998) of the same compound?
The GI50 was > 100 µM (inactive).

What about the GI50 (HCT-15) of the same compound?
Its GI50 is 78.5 µM.

What about the GI50 (EKVX) of the same compound?
The GI50 was 82.8 µM (inactive).

What about the GI50 (DU-145) of the same compound?
Its GI50 is > 100 µM (inactive).

What about the GI50 (SF-295) of the same compound?
Its GI50 is > 100 µM (inactive).

What about the GI50 (A498) of the same compound?
Its GI50 is 66.2 µM (inactive).

And the GI50 (COLO 205)?
The GI50 was > 100 µM (inactive).

And the GI50 (MDA-MB-435)?
Its GI50 is 82.4 µM (inactive).

And the GI50 (PC-3)?
The GI50 was 69.2 µM (inactive).

What about the GI50 (Malme-3M) of the same compound?
Its GI50 is > 100 µM (inactive).

And the GI50 (SNB-19)?
The GI50 was > 100 µM (inactive).

And the GI50 (K562)?
Its GI50 is 64.7 µM (inactive).

And the GI50 (SNB-75)?
The GI50 was 65.3 µM (inactive).

And the GI50 (CAKI-1)?
The GI50 was > 100 µM (inactive).

And the GI50 (SW-620)?
Its GI50 is > 100 µM (inactive).

What about the GI50 (T47D) of the same compound?
Its GI50 is 41.9 µM (inactive).

And the GI50 (HL-60)?
Its GI50 is 11.6 µM (inactive).

And the GI50 (NCI-H226)?
Its GI50 is > 100 µM (inactive).

And the GI50 (MDA-N)?
Its GI50 is > 100 µM (inactive).

And the GI50 (SK-OV-3)?
The GI50 was > 100 µM (inactive).

What about the GI50 (ACHN) of the same compound?
The GI50 was 68.7 µM (inactive).

What about the GI50 (OVCAR-8) of the same compound?
Its GI50 is 61 µM (inactive).

And the GI50 (HOP-92)?
Its GI50 is 1.48 µM (inactive).

What about the GI50 (HT-29) of the same compound?
Its GI50 is > 100 µM (inactive).

And the GI50 (NCI-H522)?
The GI50 was > 100 µM (inactive).

What about the GI50 (SK-MEL-5) of the same compound?
The GI50 was 44.8 µM (inactive).

And the GI50 (CCRF-CEM)?
Its GI50 is 23.8 µM (inactive).

What about the GI50 (OVCAR-4) of the same compound?
Its GI50 is > 100 µM (inactive).

What about the GI50 (UACC-62) of the same compound?
The GI50 was > 100 µM (inactive).

What about the GI50 (IGROV-1) of the same compound?
Its GI50 is > 100 µM (inactive).

What about the GI50 (BT-549) of the same compound?
The GI50 was > 100 µM (inactive).

And the GI50 (SK-MEL-2)?
The GI50 was > 100 µM (inactive).

And the GI50 (NCI-H23)?
The GI50 was > 100 µM (inactive).

What about the GI50 (NCI/ADR-RES) of the same compound?
The GI50 was 86.9 µM (inactive).

And the GI50 (SN12C)?
Its GI50 is > 100 µM (inactive).

And the GI50 (HOP-62)?
The GI50 was > 100 µM (inactive).

What about the GI50 (OVCAR-3) of the same compound?
Its GI50 is > 100 µM (inactive).

And the GI50 (UACC-257)?
The GI50 was > 100 µM (inactive).

What about the GI50 (OVCAR-5) of the same compound?
Its GI50 is > 100 µM (inactive).

What about the GI50 (SK-MEL-28) of the same compound?
The GI50 was > 100 µM (inactive).

What about the GI50 (SF-539) of the same compound?
The GI50 was > 100 µM (inactive).

And the GI50 (RXF 393)?
Its GI50 is > 100 µM (inactive).

`CC1(C)CC[C@]2(C)[C@@H](O)C[C@]3(C)C(=CC[C@@H]4[C@@]5(C)CC[C@H](O)C(C)(C)[C@@H]5CC[C@]43C)[C@@H]2C1` was tested. Which GI50 (786-0) did it give?
Its GI50 is 33.3 µM (inactive).

What about the GI50 (SF-268) of the same compound?
The GI50 was 46.3 µM (inactive).

What about the GI50 (HCT-116) of the same compound?
The GI50 was 41.5 µM (inactive).

What about the GI50 (MDA-MB-231) of the same compound?
Its GI50 is 16.8 µM (inactive).

What about the GI50 (UO-31) of the same compound?
Its GI50 is 20.4 µM (inactive).

What about the GI50 (NCI-H460) of the same compound?
The GI50 was 41.2 µM (inactive).

What about the GI50 (MOLT-4) of the same compound?
Its GI50 is > 100 µM (inactive).

And the GI50 (A549)?
Its GI50 is 31.7 µM (inactive).

What about the GI50 (M14) of the same compound?
Its GI50 is 93.1 µM (inactive).

And the GI50 (Hs-578T)?
Its GI50 is 24.4 µM (inactive).

What about the GI50 (U-251) of the same compound?
The GI50 was 28.7 µM (inactive).

What about the GI50 (KM12) of the same compound?
Its GI50 is 41.4 µM (inactive).

What about the GI50 (TK-10) of the same compound?
Its GI50 is 27.9 µM (inactive).

What about the GI50 (LOX IMVI) of the same compound?
The GI50 was 16.4 µM (inactive).

What about the GI50 (MCF7) of the same compound?
The GI50 was 37.9 µM (inactive).

What about the GI50 (HCT-15) of the same compound?
Its GI50 is 81.1 µM.

And the GI50 (EKVX)?
The GI50 was 38.8 µM (inactive).

What about the GI50 (DU-145) of the same compound?
Its GI50 is 40.6 µM (inactive).

And the GI50 (SF-295)?
Its GI50 is 29.4 µM (inactive).

What about the GI50 (A498) of the same compound?
The GI50 was 34.3 µM (inactive).

What about the GI50 (COLO 205) of the same compound?
Its GI50 is 48.6 µM (inactive).

What about the GI50 (MDA-MB-435) of the same compound?
The GI50 was > 100 µM (inactive).

And the GI50 (PC-3)?
Its GI50 is 29 µM (inactive).

And the GI50 (Malme-3M)?
Its GI50 is 29.4 µM (inactive).

And the GI50 (SNB-19)?
Its GI50 is 61.5 µM (inactive).

And the GI50 (K562)?
The GI50 was > 100 µM (inactive).

And the GI50 (CAKI-1)?
The GI50 was 34.5 µM (inactive).

What about the GI50 (SW-620) of the same compound?
The GI50 was > 100 µM (inactive).

And the GI50 (T47D)?
The GI50 was 9.79 µM (inactive).

What about the GI50 (HL-60) of the same compound?
Its GI50 is > 100 µM (inactive).

What about the GI50 (NCI-H226) of the same compound?
The GI50 was 35 µM (inactive).

What about the GI50 (MDA-N) of the same compound?
Its GI50 is > 100 µM (inactive).

What about the GI50 (SK-OV-3) of the same compound?
The GI50 was 14.9 µM (inactive).

And the GI50 (ACHN)?
The GI50 was 41.4 µM (inactive).

What about the GI50 (OVCAR-8) of the same compound?
Its GI50 is 20.3 µM (inactive).

What about the GI50 (HOP-92) of the same compound?
Its GI50 is 16.2 µM (inactive).

What about the GI50 (HT-29) of the same compound?
The GI50 was 39.2 µM (inactive).

What about the GI50 (NCI-H522) of the same compound?
The GI50 was 25.7 µM (inactive).

What about the GI50 (SK-MEL-5) of the same compound?
The GI50 was 35.3 µM (inactive).

What about the GI50 (CCRF-CEM) of the same compound?
Its GI50 is > 100 µM (inactive).

And the GI50 (OVCAR-4)?
Its GI50 is 97.3 µM (inactive).

What about the GI50 (UACC-62) of the same compound?
The GI50 was 58.7 µM (inactive).

What about the GI50 (IGROV-1) of the same compound?
The GI50 was 35.9 µM (inactive).

What about the GI50 (BT-549) of the same compound?
Its GI50 is 93.1 µM (inactive).

What about the GI50 (SK-MEL-2) of the same compound?
Its GI50 is 26.4 µM (inactive).

And the GI50 (NCI-H23)?
The GI50 was 29.4 µM (inactive).

What about the GI50 (NCI/ADR-RES) of the same compound?
Its GI50 is 40 µM (inactive).

What about the GI50 (SN12C) of the same compound?
The GI50 was 56.9 µM (inactive).

And the GI50 (HOP-62)?
The GI50 was 37 µM (inactive).

And the GI50 (OVCAR-3)?
Its GI50 is 65.2 µM (inactive).

And the GI50 (UACC-257)?
The GI50 was 49.5 µM (inactive).

What about the GI50 (OVCAR-5) of the same compound?
The GI50 was 97.3 µM (inactive).

What about the GI50 (SK-MEL-28) of the same compound?
The GI50 was > 100 µM (inactive).

And the GI50 (RXF 393)?
Its GI50 is 7.24 µM (inactive).

— ChEMBL document CHEMBL1201862, “PubChem BioAssay data set” (2004)
